Measured values as given in the Kinase Knowledgebase extract (Sharma et al. 2016).

The molecules below were run against PIK3CA (human) (UniProt P42336) (assay: Assessment of PIK3CA Kinase Activity).
Sequence of PIK3CA (human) (P42336 whole entry, looked up): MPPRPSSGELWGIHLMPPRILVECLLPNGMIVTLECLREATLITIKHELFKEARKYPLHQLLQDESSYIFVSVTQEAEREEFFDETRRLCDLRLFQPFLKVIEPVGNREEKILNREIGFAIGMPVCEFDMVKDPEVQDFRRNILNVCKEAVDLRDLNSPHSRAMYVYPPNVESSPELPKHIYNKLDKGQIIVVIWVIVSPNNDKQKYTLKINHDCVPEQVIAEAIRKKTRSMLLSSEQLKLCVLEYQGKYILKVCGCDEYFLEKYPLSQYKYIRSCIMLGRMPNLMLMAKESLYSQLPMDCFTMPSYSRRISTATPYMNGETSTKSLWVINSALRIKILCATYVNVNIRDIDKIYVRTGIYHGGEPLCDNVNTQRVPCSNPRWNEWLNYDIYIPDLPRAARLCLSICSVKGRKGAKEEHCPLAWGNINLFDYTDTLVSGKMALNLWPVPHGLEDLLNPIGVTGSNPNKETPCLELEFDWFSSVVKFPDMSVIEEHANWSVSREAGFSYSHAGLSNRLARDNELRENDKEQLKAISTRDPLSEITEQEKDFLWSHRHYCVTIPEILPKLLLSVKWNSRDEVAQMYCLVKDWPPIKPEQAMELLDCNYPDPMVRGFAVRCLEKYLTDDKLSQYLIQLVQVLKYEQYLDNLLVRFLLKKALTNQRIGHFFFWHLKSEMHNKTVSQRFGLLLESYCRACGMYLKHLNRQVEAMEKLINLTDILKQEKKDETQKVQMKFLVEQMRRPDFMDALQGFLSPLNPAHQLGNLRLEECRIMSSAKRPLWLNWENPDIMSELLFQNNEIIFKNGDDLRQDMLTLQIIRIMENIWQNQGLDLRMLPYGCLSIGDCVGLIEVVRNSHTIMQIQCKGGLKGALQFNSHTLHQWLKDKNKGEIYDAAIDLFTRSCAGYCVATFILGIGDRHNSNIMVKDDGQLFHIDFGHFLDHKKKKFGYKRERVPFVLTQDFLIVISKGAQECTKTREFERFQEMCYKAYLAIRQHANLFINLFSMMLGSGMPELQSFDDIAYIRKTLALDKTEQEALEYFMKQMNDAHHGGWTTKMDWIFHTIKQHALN

| SMILES | IC50 [nM] |
| --- | --- |
| Cc1nc(-c2nc3c(s2)CCOc2cc(C4CN(CC(=O)NC(C)C)C4)ccc2-3)n(C(C)C)n1 | < 1000 |
| NC(=O)c1cnc2c(c1)OCCc1cc(-c3ccc[nH]c3=O)sc1-2 | < 1000 |
| CC(CO)Nc1ccc2c(n1)-c1sc(-c3ncnn3-c3ccc(F)cc3F)cc1CCO2 (stereo unspecified) | < 1000 |
| CC(C)n1nc(CO)nc1-c1nc2c(s1)CCOc1ccccc1-2 | < 1000 |
| CNC(=O)c1ccc2c(c1)OCCc1cc(C(=O)N(C)c3cc(C(=O)N(C)CCO)ccc3Cl)sc1-2 | < 1000 |
| CC(C)n1ncnc1-c1nc2c(s1)CCOc1cc(C3CN(CCS(=O)(=O)N(C)C)C3)ccc1-2 | < 1000 |
| CC(=O)N1CCC(Nc2ccc3c(n2)-c2sc(-c4ncnn4-c4ccc(F)cc4F)cc2CCO3)CC1 | < 1000 |
| CN1CCC(n2ncnc2-c2nc3c(s2)CCOc2cc(-c4cnn(CC(C)(C)O)c4)ccc2-3)CC1 | < 1000 |
| CC(C)NC(=O)CN1CC(c2ccc3c(c2)OCCc2sc(-c4ncnn4C(C)C)nc2-3)C1 | < 1000 |
| CCn1ccc(-c2ccc3c(c2)OCCc2sc(-c4ncnn4C(C)C)nc2-3)cc1=O | < 1000 |
| CC(C)n1nc(N)nc1-c1nc2c(s1)CCOc1ccc(F)cc1-2 | < 1000 |
| CC(C)n1ncnc1-c1nc2c(s1)CCOc1cc(-c3cnc(CO)n3C)ccc1-2 | < 1000 |
| CC(=O)N1CC(n2c(Cl)cnc2-c2nc3c(s2)CCOc2cc(-c4cnn(CC(C)(C)O)c4)ccc2-3)C1 | < 1000 |
| Cc1ccncc1-c1ccc2c(c1)-c1nc(C(=O)N(CCO)C(C)C)sc1CCO2 | < 1000 |
| CC(C)n1ncnc1-c1nc2c(s1)CCOc1ccc(C3CN(S(=O)(=O)CCO)C3)cc1-2 | < 1000 |
| CC(C)n1ncnc1-c1nc2c(s1)CCOc1cc(C3CCN(CCO)CC3)ccc1-2 | < 1000 |
| CC(C)n1ncnc1-c1nc2c(s1)CCOc1ccc(-c3cccn(C)c3=O)cc1-2 | < 1000 |
| CC(C)(C(N)=O)n1cc(-c2ccc3c(c2)OCCc2sc(-c4ncnn4CC(F)(F)F)nc2-3)cn1 | < 1000 |
| Fc1ccc(-n2ncnc2-c2cc3c(s2)-c2nc(-c4ccc(N5CCOCC5)nc4)ccc2OCC3)c(F)c1 | < 1000 |
| CC(C)n1ncnc1-c1nc2c(s1)CCOc1cc(C3CN(S(=O)(=O)CCN(C)C)C3)ccc1-2 | < 1000 |
| CC1(C)C(=O)NC(=O)N1c1nc2c(s1)CCOc1cc(C3CCNCC3)ccc1-2 | < 1000 |
| Cc1nc(-c2nc3c(s2)CCOc2cc(C4CN(C[C@H](O)CO)C4)ccc2-3)n(C(C)C)n1 | < 1000 |
| CC(C)n1ncnc1-c1nc2c(s1)CCOc1ccc(-c3cccnc3)cc1-2 | < 1000 |

| SMILES | IC50 [nM] |
| --- | --- |
| CC(C)n1ncnc1-c1nc2c(s1)CCOc1ccc(-c3ccn(C)c(=O)c3)cc1-2 | < 1000 |
| C[C@@H]1CN(c2ccc3c(n2)-c2sc(-c4ncnn4-c4ccc(F)cc4F)cc2CCO3)C[C@H](C)N1CC(F)(F)F | < 1000 |
| CC(=O)N1CCCN(c2ccc3c(n2)-c2sc(-c4ncnn4-c4ccc(F)cc4F)cc2CCO3)CC1 | < 1000 |
| CC(=O)N1CCN(c2ccc3c(n2)-c2sc(-c4ncnn4-c4ccc(F)cc4F)cc2CCO3)CC1 | < 1000 |
| O=C1CN(c2ccc3c(n2)-c2sc(-c4ncnn4-c4ccc(F)cc4F)cc2CCO3)CCN1 | < 1000 |
| CNC(=O)c1ccc2c(c1)OCCc1cc(C(=O)N(C)c3cc(C(=O)N4CC(O)C4)ccc3Cl)sc1-2 | < 1000 |
| CC(=O)N1CC(Nc2ccc3c(n2)-c2sc(-c4ncnn4-c4ccc(F)cc4F)cc2CCO3)C1 | < 1000 |
| CC(C)n1ncnc1-c1nc2c(s1)CCOc1cc(-c3cnn(C(C)(C)C(=O)NC4CN(C)C4)c3)ccc1-2 | < 1000 |
| CC(C)n1ncnc1-c1nc2c(s1)CCOc1cc(C3(O)CCNCC3)ccc1-2 | < 1000 |
| CC(C)n1ncnc1-c1nc2c(s1)CCOc1cc(C3CN(CCS(C)(=O)=O)C3)ccc1-2 | < 1000 |
| CC(C)n1ncnc1-c1nc2c(s1)CCOc1ccc(-c3c[nH]c(=O)[nH]c3=O)cc1-2 | < 1000 |
| CC(C)(O)Cn1cc(-c2ccc3c(c2)OCCc2sc(-c4ncnn4CCO)nc2-3)cn1 | < 1000 |
| CC(C)n1ncnc1-c1nc2c(s1)CCOc1cc(C3CN(C(C)(C)CO)C3)ccc1-2 | < 1000 |
| CC(C)n1ncnc1-c1nc2c(s1)CCOc1cc(CNc3ccon3)ccc1-2 | < 1000 |
| CC(O)CNc1ccc2c(n1)-c1sc(-c3ncnn3-c3ccc(F)cc3F)cc1CCO2 (stereo unspecified) | < 1000 |
| CC(C)n1c(-c2nc3c(s2)CCOc2cc(-c4cnn(CCO)c4)ccc2-3)nnc1C(F)(F)F | < 1000 |
| CC(C)N1CC(c2ccc3c(c2)OCCc2sc(-c4ncnn4C(C)C)nc2-3)C1 | < 1000 |
| CC(C)n1ncnc1-c1cc2c(s1)-c1ccc(-c3cccc(S(C)(=O)=O)c3)cc1OCC2 | < 1000 |
| CC(C)Nc1ccc2c(n1)-c1sc(-c3ncnn3-c3ccc(F)cc3F)cc1CCO2 | < 1000 |
| CNc1ccc(-c2ccc3c(c2)-c2nc(C(=O)N(CCO)C(C)C)sc2CCO3)cn1 | < 1000 |
| CN(C(=O)c1cc2c(s1)-c1ccc(C(=O)NCCS(C)(=O)=O)cc1OCC2)c1cc(C(=O)NCCO)ccc1Cl | < 1000 |
| COCCNC(=O)c1ccc2c(c1)OCCc1sc(-c3ncnn3C(C)C)nc1-2 | < 1000 |

Now from value to molecule:

| IC50 [nM] | SMILES |
| --- | --- |
| < 1000 | CC(C)(O)Cn1cc(-c2ccc3c(c2)OCCc2sc(-c4ncnn4C4CCN(CCO)CC4)nc2-3)cn1 |
| < 1000 | CN1CCC(N(C)C(=O)c2nc3c(s2)CCOc2cc(-c4cn[nH]c4)ccc2-3)C1 (stereo unspecified) |
| < 1000 | CC(C)N1CC[C@H](CN(C)C(=O)c2nc3c(s2)CCOc2cc(-c4cn[nH]c4)ccc2-3)C1 |
| < 1000 | O=C(c1nc2c(s1)CCOc1cc(-c3cn[nH]c3)ccc1-2)N1CC[C@@H](C(F)(F)F)C1 |
| < 1000 | CCN(CC)[C@@H]1CCN(C(=O)c2nc3c(s2)CCOc2cc(-c4cn[nH]c4)ccc2-3)C1 |
| < 1000 | C[C@@H]1CCCN(C(=O)c2nc3c(s2)CCOc2cc(-c4cn[nH]c4)ccc2-3)C1 |
| < 1000 | C[C@@H]1CN(C2CCN(C(=O)c3nc4c(s3)CCOc3cc(-c5cn[nH]c5)ccc3-4)CC2)C[C@@H](C)O1 |
| < 1000 | O=C(c1nc2c(s1)CCOc1cc(-c3cn[nH]c3)ccc1-2)N1CCC(CO)CC1 |
| < 1000 | N#C[C@@H]1CCCN1C(=O)c1nc2c(s1)CCOc1cc(-c3cn[nH]c3)ccc1-2 |
| < 1000 | O=C(c1nc2c(s1)CCOc1cc(-c3cn[nH]c3)ccc1-2)N1CCCC[C@@H]1CO |
| < 1000 | CN(CCc1ccccn1)C(=O)c1nc2c(s1)CCOc1cc(-c3cn[nH]c3)ccc1-2 |
| < 1000 | CN(C)C1CCN(C(=O)c2nc3c(s2)CCOc2cc(-c4cn[nH]c4)ccc2-3)CC1 |
| < 1000 | O=C(c1nc2c(s1)CCOc1cc(-c3cn[nH]c3)ccc1-2)N1CCN2CCCC[C@@H]2C1 |
| < 1000 | COCCN(C)C(=O)c1nc2c(s1)CCOc1cc(-c3cn[nH]c3)ccc1-2 |
| < 1000 | O=C(c1nc2c(s1)CCOc1cc(-c3cn[nH]c3)ccc1-2)N1CCC[C@@H](CO)C1 |
| < 1000 | CCN(CC)C(=O)c1nc2c(s1)CCOc1cc(-c3cn[nH]c3)ccc1-2 |
| < 1000 | CN(C)[C@@H]1CCN(C(=O)c2nc3c(s2)CCOc2cc(-c4cn[nH]c4)ccc2-3)C1 |
| < 1000 | COc1ccccc1C1CCN(C(=O)c2nc3c(s2)CCOc2cc(-c4cn[nH]c4)ccc2-3)CC1 |
| < 1000 | O=C(c1nc2c(s1)CCOc1cc(-c3cn[nH]c3)ccc1-2)N1CCCC1 |
| < 1000 | O=C(c1nc2c(s1)CCOc1cc(-c3cn[nH]c3)ccc1-2)N1CCN(CCO)CC1 |
| < 1000 | CC(C)N(CCO)C(=O)c1nc2c(s1)CCOc1cc(-c3cnn(CCN4CCOCC4)c3)ccc1-2 |
